Experimental data reported in PubChem BioAssay (NCI).
“And” between values parts separate entries of the source, which are not always exact repeats. Identical values can stand only once.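 Dose response: 5 concentrations. Exposure: 48 h. Format: 96-well plates. Endpoint: linear interpolation; highest concentration if not reached. GI50 marks 50% less growth. The concentration for full growth arrest is given as TGI.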

Legend:
Test in all cases: NCI anticancer screen, dose series, 48 h
[1] = system: NCI-H522 lung
[2] = system: MALME-3M melanoma
[3] = system: K-562 leukemia
[4] = system: HS 578T breast
[5] = system: ACHN renal
[6] = system: MDA-MB-231 breast
[7] = system: SK-MEL-5 melanoma
[8] = system: SW-620 colon
[9] = system: UACC-257 melanoma
[10] = system: CAKI-1 renal

| SMILES | GI50 [1] | TGI [1] [µM] | GI50 [2] | TGI [2] | GI50 [3] [µM] | TGI [3] [µM] | GI50 [4] [µM] | TGI [4] [µM] | GI50 [5] [µM] | TGI [5] [µM] | GI50 [6] [µM] | TGI [6] [µM] | GI50 [7] [µM] | TGI [7] | GI50 [8] | TGI [8] [µM] | GI50 [9] | TGI [9] [µM] | GI50 [10] [µM] | TGI [10] [µM] |
| --- | --- | --- | --- | --- | --- | --- | --- | --- | --- | --- | --- | --- | --- | --- | --- | --- | --- | --- | --- | --- |
| COC(=O)/C=C/c1cc(OC(C)=O)c2c(c1)C(C(=O)OC)C(c1ccc(OC(C)=O)c(OC(C)=O)c1)O2 (stereo not drawn) | 0.0654 µM | 11.6 | 1.08 µM | 56.6 µM | 0.0405 | > 100 | 0.0521 | 68.2 | 0.0779 | 35.5 | 0.442 | > 21.3 | 0.0572 | 1.98 µM | 0.0468 µM | > 100 | 13.7 µM | > 77.6 | 0.278 | 94 |
| COc1ccc(Cl)cc1NC(=O)c1ccc(NC2=C(Cl)C(=O)N(Cc3ccccc3)C2=O)cc1 | 17.5 µM | > 100 | > 100 µM | > 100 µM | 6.87 | > 100 | 37.1 | > 100 | 94.2 | > 100 | 26.2 | > 100 | 47.4 | > 100 µM | 93 µM | > 100 | 94.1 µM | > 100 | > 100 | > 100 |
| O=C(Nc1nc(-c2c[nH]c3ccccc23)cs1)c1n[nH]c(=O)c2ccccc12 | 3.26 µM | > 58.2 | 18.7 µM | 80 µM | 1.27 | > 100 | 5.52 | 55 | 8.98 | > 69.1 | 25.7 | > 100 | 1.44 | > 100 µM | 1.91 µM | > 100 | 38.4 µM | > 100 | 2.44 | > 62.3 |
| Cc1cc(C(=O)CSC(=S)SC(C)(C)C)ccc1Cl | – | 30.3 | – | 33.4 µM | – | > 100 | – | 82.3 | – | 62.9 | – | 36.4 | – | 31.7 µM | – | 68.3 | – | 34.4 | – | > 100 |
| O=C(O)c1ccc(CNCc2ccccc2)cc1 | – | > 100 | – | > 100 µM | – | > 100 | – | > 100 | – | > 100 | – | > 100 | – | > 100 µM | – | > 100 | – | > 100 | – | > 100 |
| COc1ccc(/C=C\c2cc(OC)c(OC)c(OC)c2)cc1OCC(=O)O | – | 9.01 | – | > 100 µM | – | > 100 | – | 9.25 | – | > 100 | – | > 92.7 | – | 50.1 µM | – | > 100 | – | > 100 | – | > 100 |
| COc1c2occc2c(N)c2ccc(=O)oc12 | – | > 100 | – | > 100 µM | – | > 100 | – | > 100 | – | > 100 | – | > 100 | – | > 100 µM | – | > 100 | – | > 100 | – | > 100 |
| COc1ccc(CNc2c3ccccc3nc3ccccc23)cc1F | 2.01 µM | 6.45 | 2.71 µM | 7.73 µM | 2.94 | 12.3 | 3.06 | 11.5 | 3.03 | 11.3 | 3.16 | 10.7 | 3.21 | 10.6 µM | 2.51 µM | 10.5 | 3.98 µM | 16.7 | 2.26 | 8.35 |
| CNc1cc2oc(=O)cc(C)c2cc1C | – | > 100 | – | > 100 µM | – | > 100 | – | > 100 | – | > 100 | – | > 100 | – | > 100 µM | – | > 100 | – | > 100 | – | > 100 |
| CCSc1nc(N=Cc2ccccc2O)c2cn[nH]c2n1 | 48.9 µM | > 100 | 0.137 µM | 34.7 µM | 41.6 | > 100 | 20.9 | 69.2 | 29.8 | > 100 | 12.7 | > 100 | 23.8 | 65.9 µM | 38.4 µM | > 100 | 56.7 µM | > 100 | 19.3 | 82.4 |
| NC(=O)c1cc(I)ccc1NC(=O)/C=C/c1ccccc1 | 1.07 µM | – | 2.1 µM | > 100 µM | 0.668 | > 100 | 0.364 | 15.4 | 3.15 | > 47.1 | 0.769 | > 67.2 | 0.38 | 12.5 µM | 0.48 µM | > 100 | 14.3 µM | 53.3 | 0.652 | 24.8 |
| CN(C)CCN1CCC(Cc2ccccc2)CC1 | > 80 µM | > 80 | > 80 µM | > 80 µM | 15.4 | > 80 | 44.1 | > 80 | > 80 | > 80 | > 80 | > 80 | 43.2 | > 80 µM | > 80 µM | > 80 | > 80 µM | > 80 | > 80 | > 80 |
| CC(C)=CCC1=C(O)c2ccccc2C(=O)C1=O | > 100 µM and 19.7 µM and 20.6 µM | > 100 | > 100 µM and 35.1 µM and 20.4 µM | > 100 µM and 96.2 µM | – | > 100 | – | > 100 | – | > 100 | 21 | > 100 | 11.2 | 27 µM and 28 µM | > 100 µM and 34.6 µM and 22.9 µM | > 100 | > 100 µM and 28.6 µM | > 100 | – | > 100 |
| COc1cc(/C=C2\CCCCC3=C2N=C2SC(C)=CN2C3c2cc(OC)c(OC)c(OC)c2)cc(OC)c1OC (stereo not drawn) | 1.32 µM | > 100 | 15.2 µM | > 100 µM | 0.36 | > 100 | 16 | > 100 | 11.9 | > 100 | 4.24 | > 100 | 0.077 | 21 µM | > 100 µM | > 100 | 0.403 µM | > 100 | 73.3 | > 100 |
| COc1nc(=O)n(C2C=CC(=O)O2)cc1F (stereo not drawn) | 2.33 µM | 8.72 | 1.8 µM | 6.95 µM | – | – | 13.4 | 40.8 | 2.11 | 5.45 | 12.7 | 25.9 | 4.91 | 18.6 µM | 4.19 µM | 15.8 | 11.6 µM | 31.4 | 2.67 | 8.7 |
